# In PubChem BioAssay AID1259407 (Chemical Carcinogenesis Research Information System (CCRIS), 2018):
# Activity calls are given as the source filed them. How the calls were made is not given here.
# System: CCRIS mutagenicity, Ames/micronucleus/aberration tests
# Assay: CCRIS mutagenicity studies
# [1] = Test System: AMES SALMONELLA TYPHIMURIUM, Strain/Indicator: TA98, Metabolic Activation: NONE, Method: PREINCUBATION
# [2] = Test System: AMES SALMONELLA TYPHIMURIUM, Strain/Indicator: TA100, Metabolic Activation: NONE, Method: PREINCUBATION
# [3] = Test System: AMES SALMONELLA TYPHIMURIUM, Strain/Indicator: TA1535, Metabolic Activation: NONE, Method: PREINCUBATION
# [4] = Test System: AMES SALMONELLA TYPHIMURIUM, Strain/Indicator: TA1537, Metabolic Activation: NONE, Method: PREINCUBATION
# [5] = Test System: AMES SALMONELLA TYPHIMURIUM, Strain/Indicator: TA98, Metabolic Activation: NONE, Method: STANDARD PLATE
# [6] = Test System: AMES SALMONELLA TYPHIMURIUM, Strain/Indicator: TA98, Metabolic Activation: RAT, LIVER, S-9, AROCLOR 1254, Method: STANDARD PLATE
# [7] = Test System: AMES SALMONELLA TYPHIMURIUM, Strain/Indicator: TA100, Metabolic Activation: NONE, Method: STANDARD PLATE
# [8] = Test System: AMES SALMONELLA TYPHIMURIUM, Strain/Indicator: TA100, Metabolic Activation: RAT, LIVER, S-9, AROCLOR 1254, Method: STANDARD PLATE
# [9] = Test System: AMES SALMONELLA TYPHIMURIUM, Strain/Indicator: TA97, Metabolic Activation: NONE, Method: PREINCUBATION
smiles,measurement,setting,value
CCn1c2ccccc2c2cc(N)ccc21,mutagenic call,"Test System: AMES SALMONELLA TYPHIMURIUM, Strain/Indicator: TA98, Metabolic Activation: HAMSTER, LIVER, S-9, AROCLOR 1254, Method: PREINCUBATION",active; positive
same,mutagenic call,[1],inactive; negative
same,mutagenic call,"Test System: AMES SALMONELLA TYPHIMURIUM, Strain/Indicator: TA98, Metabolic Activation: RAT, LIVER, S-9, AROCLOR 1254, Method: PREINCUBATION",active; positive
same,mutagenic call,"Test System: AMES SALMONELLA TYPHIMURIUM, Strain/Indicator: TA100, Metabolic Activation: HAMSTER, LIVER, S-9, AROCLOR 1254, Method: PREINCUBATION",active; positive
same,mutagenic call,[2],inactive; negative
same,mutagenic call,"Test System: AMES SALMONELLA TYPHIMURIUM, Strain/Indicator: TA100, Metabolic Activation: RAT, LIVER, S-9, AROCLOR 1254, Method: PREINCUBATION",active; positive
same,mutagenic call,"Test System: AMES SALMONELLA TYPHIMURIUM, Strain/Indicator: TA1535, Metabolic Activation: HAMSTER, LIVER, S-9, AROCLOR 1254, Method: PREINCUBATION",inactive; negative
same,mutagenic call,[3],inactive; negative
same,mutagenic call,"Test System: AMES SALMONELLA TYPHIMURIUM, Strain/Indicator: TA1535, Metabolic Activation: RAT, LIVER, S-9, AROCLOR 1254, Method: PREINCUBATION",inactive; negative
same,mutagenic call,"Test System: AMES SALMONELLA TYPHIMURIUM, Strain/Indicator: TA1537, Metabolic Activation: HAMSTER, LIVER, S-9, AROCLOR 1254, Method: PREINCUBATION",active; positive
same,mutagenic call,[4],inactive; negative
same,mutagenic call,"Test System: AMES SALMONELLA TYPHIMURIUM, Strain/Indicator: TA1537, Metabolic Activation: RAT, LIVER, S-9, AROCLOR 1254, Method: PREINCUBATION",active; positive
O=C(/C=C/c1ccc(F)cc1)c1ccccc1,mutagenic call,[5],inactive; negative
same,mutagenic call,[6],inactive; negative
same,mutagenic call,[7],inactive; negative
same,mutagenic call,[8],inactive; negative
Cc1ccc(NC(=O)c2ccc(CN3CCN(C)CC3)cc2)cc1Nc1nccc(-c2cccnc2)n1,mutagenic call,"End Point: IN VITRO CHROMOSOMAL ABERRATIONS, Test System: CHINESE HAMSTER EMBRYO (CHE), Metabolic Activation: NONE",active; positive (structural and numerical changes)
same,mutagenic call,"End Point: IN VITRO CHROMOSOMAL ABERRATIONS, Test System: INDIAN MUNTJAK FIBROBLASTS (IMF), Metabolic Activation: NONE",active; positive (numerical changes)
same,mutagenic call,"End Point: IN VITRO CHROMOSOMAL ABERRATIONS, Test System: NORMAL HUMAN DERMAL FIBROBLASTS (NHDF), Metabolic Activation: NONE",active; positive (structural changes)
C=CCc1ccccc1OCC(O)CNC(C)C (stereo not given),mutagenic call,[5],inactive; negative
same,mutagenic call,[6],inactive; negative
same,mutagenic call,[7],inactive; negative
same,mutagenic call,[8],inactive; negative
COC(=O)NC(=S)Nc1ccccc1NC(=S)NC(=O)OC,mutagenic call,"Test System: AMES SALMONELLA TYPHIMURIUM, Strain/Indicator: TA97, Metabolic Activation: HAMSTER, LIVER, S-9, AROCLOR 1254 (10 OR 30%), Method: PREINCUBATION",inactive; negative
same,mutagenic call,[9],inactive; negative
same,mutagenic call,"Test System: AMES SALMONELLA TYPHIMURIUM, Strain/Indicator: TA97, Metabolic Activation: RAT, LIVER, S-9, AROCLOR 1254 (10 OR 30%), Method: PREINCUBATION",inactive; negative
same,mutagenic call,"Test System: AMES SALMONELLA TYPHIMURIUM, Strain/Indicator: TA98, Metabolic Activation: HAMSTER, LIVER, S-9, AROCLOR 1254 (10 OR 30%), Method: PREINCUBATION",inactive; negative
same,mutagenic call,"Test System: AMES SALMONELLA TYPHIMURIUM, Strain/Indicator: TA98, Metabolic Activation: HAMSTER, LIVER, S-9, AROCLOR 1254 (30%), Method: PREINCUBATION",active; positive
same,mutagenic call,[1],inactive; negative
same,mutagenic call,"Test System: AMES SALMONELLA TYPHIMURIUM, Strain/Indicator: TA98, Metabolic Activation: RAT, LIVER, S-9, AROCLOR 1254 (10 OR 30%), Method: PREINCUBATION",inactive; negative
same,mutagenic call,"Test System: AMES SALMONELLA TYPHIMURIUM, Strain/Indicator: TA98, Metabolic Activation: RAT, LIVER, S-9, AROCLOR 1254 (30%), Method: PREINCUBATION",inactive; negative
same,mutagenic call,"Test System: AMES SALMONELLA TYPHIMURIUM, Strain/Indicator: TA100, Metabolic Activation: HAMSTER, LIVER, S-9, AROCLOR 1254 (10 OR 30%), Method: PREINCUBATION",inactive; negative
same,mutagenic call,"Test System: AMES SALMONELLA TYPHIMURIUM, Strain/Indicator: TA100, Metabolic Activation: HAMSTER, LIVER, S-9, AROCLOR 1254 (30%), Method: PREINCUBATION",active; positive
same,mutagenic call,[2],inactive; negative
same,mutagenic call,"Test System: AMES SALMONELLA TYPHIMURIUM, Strain/Indicator: TA100, Metabolic Activation: RAT, LIVER, S-9, AROCLOR 1254 (10 OR 30%), Method: PREINCUBATION",inactive; negative
same,mutagenic call,"Test System: AMES SALMONELLA TYPHIMURIUM, Strain/Indicator: TA1535, Metabolic Activation: HAMSTER, LIVER, S-9, AROCLOR 1254 (10 OR 30%), Method: PREINCUBATION",inactive; negative
same,mutagenic call,[3],inactive; negative
same,mutagenic call,"Test System: AMES SALMONELLA TYPHIMURIUM, Strain/Indicator: TA1535, Metabolic Activation: RAT, LIVER, S-9, AROCLOR 1254 (10 OR 30%), Method: PREINCUBATION",inactive; negative
same,mutagenic call,"Test System: AMES SALMONELLA TYPHIMURIUM, Strain/Indicator: TA1537, Metabolic Activation: HAMSTER, LIVER, S-9, AROCLOR 1254 (30%), Method: PREINCUBATION",inactive; negative
same,mutagenic call,[4],inactive; negative
same,mutagenic call,"Test System: AMES SALMONELLA TYPHIMURIUM, Strain/Indicator: TA1537, Metabolic Activation: RAT, LIVER, S-9, AROCLOR 1254 (30%), Method: PREINCUBATION",inactive; negative
Cc1c(C)c2c(Cl)c3ccccc3nc2c2ccccc12,mutagenic call,[9],active; positive
same,mutagenic call,"Test System: AMES SALMONELLA TYPHIMURIUM, Strain/Indicator: TA97, Metabolic Activation: NONE, Method: STANDARD PLATE",active; positive
same,mutagenic call,[1],active; positive
same,mutagenic call,[4],active; positive
